Data reported in patent US10752640B2, “Compounds active towards bromodomains” (NUEVOLUTION A/S, priority 2014, dated 2020).

Target: BRD4 protein (Homo sapiens, UniProt O60885)
Assay: FRET assay, half maximal inhibitory concentration (IC50)
Format: binding
Conditions: BRD4 protein 50 nM, Biotin-H4KAc4 peptide 12.5 nM; List of Classification
Description: The compounds were biologically evaluated by determining the half maximal inhibitory concentration (IC50) by FRET assay. The IC50 is a measure of the effectiveness of a substance in inhibiting a specific biological or biochemical function.
For IC50 determinations, dose-response curves were generated, using a top concentration of 50 μM compound in 12.5% DMSO, followed by 10-fold dilutions in 12.5% DMSO. The composition of the reaction buffer was 50 mM HEPES, pH 7.5; 100 mM NaCl, 0.05% CHAPS.
The reaction was run in a final volume of 25 μl. The BRD4 protein (16.5 μl) was added to wells of 384w white Optiplates (Perkin Elmer) (50 nM final concentration) and 1 μl of compound dilution of DMSO control. Incubation time was 30 minutes at room temperature. In the next step, 2.5 μl Biotin-H4KAc4 peptide (Millipore 13-379) was added to the wells (final concentration was 12.5 nM), and the plates were incubated for 30 minutes at room temperature. Detection was performed by addition of 5 μl of a mix of mAb GST-XL665 (Cisbio 61GSTXLB) (10 nM final concentration) and Streptavidin Cryptate (Cisbio 610SAKLB) (2.4 nM final conc.) in reaction buffer with 0.4M KF and 0.05% BSA). The plates were incubated for one hour prior to reading on an Envision reader (Perkin Elmer)
Data was analyzed using GraphPad Prism, and IC50 data was obtained using non-linear regression curve fit using log(inhibitor) vs response (variable slope). All compounds were considered active although classified (according to the half maximal inhibitory concentration (IC50) by FRET assay) as follows: […]

| Compound | IC50 |
| --- | --- |
| Cc1cc(O)nc2ccc(NC(=O)c3cc(CN4CCNCC4)ccc3N3CCCC3)cc12 [Compound-2, N-(2-hydroxy-4-methylquinolin-6-yl)-5-(piperazin-1-ylmethyl)-2-(pyrrolidin-1-yl)benzamide] | < 200 nM |
| Cc1cc(O)nc2ccc(NC(=O)c3cc(CN4CCOCC4)ccc3N3CCCC3)cc12 [Compound-3, N-(2-hydroxy-4-methylquinolin-6-yl)-5-(morpholinomethyl)-2-(pyrrolidin-1-yl)benzamide] | < 200 nM |
| CC(=O)N1CCN(Cc2ccc(N3CCCC3)c(C(=O)Nc3ccc4nc(O)cc(C)c4c3)c2)CC1 [Compound-4, 5-[(4-acetylpiperazin-1-yl)methyl]-N-(2-hydroxy-4-methyl-6-quinolyl)-2-pyrrolidin-1-yl-benzamide] | < 200 nM |
| Cc1cc(O)nc2ccc(NC(=O)c3cc(S(=O)(=O)N4CCN(C)CC4)ccc3N3CCOCC3)cc12 [Compound-5, N-(2-hydroxy-4-methylquinolin-6-yl)-5-(4-methylpiperazin-1-ylsulfonyl)-2-morpholino benzamide] | < 200 nM |
| Cc1cc(O)nc2ccc(NC(=O)c3cc(S(=O)(=O)N4CCC(N(C)C)C4)ccc3N3CCOCC3)cc12 (stereo not drawn) [Compound-6, 5-[3-(dimethylamino)pyrrolidin-1-yl]sulfonyl-N-(2-hydroxy-4-methyl-6-quinolyl)-2-morpholino-benzamide] | < 200 nM |
| Cc1cc(O)nc2ccc(NC(=O)c3cc(S(=O)(=O)N4CC(N(C)C)C4)ccc3N3CCOCC3)cc12 [Compound-7, 5-[3-(dimethylamino)azetidin-1-yl]sulfonyl-N-(2-hydroxy-4-methyl-6-quinolyl)-2-morpholino-benzamide] | < 200 nM |
| Cc1cc(O)nc2ccc(NC(=O)c3cc(S(=O)(=O)N4CC(N)C4)ccc3N3CCOCC3)cc12 [Compound-8, 1-(3-(2-hydroxy-4-methylquinolin-6-ylcarbamoyl)-4-morpholinophenylsulfonyl) azetidin-3-aminium 2,2,2-trifluoroacetate] | < 200 nM |
| Cc1cc(O)nc2ccc(NC(=O)c3cc(C(=O)N(C)C)ccc3N3CCOCC3)cc12 [Compound-9, N3-(2-hydroxy-4-methyl-6-quinolyl)-N1,N1-dimethyl-4-morpholino-benzene-1,3-dicarboxamide] | < 200 nM |
| Cc1cc(O)nc2ccc(NC(=O)c3cc(C(=O)N4CCN(C)CC4)ccc3N3CCOCC3)cc12 [Compound-10, N-(2-hydroxy-4-methyl-6-quinolyl)-5-(4-methylpiperazine-1-carbonyl)-2-morpholino-benzamide] | < 200 nM |
| Cc1cc(O)nc2ccc(NC(=O)c3cc(C(=O)N4CCOCC4)ccc3N3CCOCC3)cc12 [Compound-11, N-(2-hydroxy-4-methylquinolin-6-yl)-5-(morpholine-4-carbonyl)-2-morpholinobenzamide] | 200 to 500 nM |
| Cc1cc(O)nc2ccc(NC(=O)c3cc(C(N)=O)ccc3N3CCOCC3)cc12 [Compound-12, N3-(2-hydroxy-4-methyl-6-quinolyl)-4-morpholino-benzene-1,3-dicarboxamide] | 200 to 500 nM |
| COCc1ccc(N2CCCC2)c(C(=O)Nc2ccc3nc(O)cc(C)c3c2)c1 [Compound-13, N-(2-hydroxy-4-methylquinlin-6-yl)-5-(methoxymethyl)-2-(pyrrolidin-1-yl) benzamide] | < 200 nM |
| Cc1cc(O)nc2ccc(NC(=O)c3cc(CO)ccc3N3CCCC3)cc12 [Compound-14, N-(2-hydroxy-4-methylquinlin-6-yl)-5-(hydroxymethyl)-2-(pyrrolidin-1-yl) benzamide] | 200 to 500 nM |
| Cc1cc(O)nc2ccc(NC(=O)c3cc(S(=O)(=O)N(C)C)ccc3N3CCN(C)CC3)cc12 [Compound-15, 5-(N, N-dimethylsulfamoyl)-N-(2-hydroxy-4-methylquinolin-6-yl)-2-(4-methylpiperazin-1-yl) benzamide] | < 200 nM |
| Cc1cc(O)nc2ccc(NC(=O)c3cc(S(=O)(=O)N(C)C)ccc3N3CCC(N(C)C)C3)cc12 (stereo not drawn) [Compound-16, 2-[3-(dimethylamino)pyrrolidin-1-yl]-5-(dimethylsulfamoyl)-N-(2-hydroxy-4-methyl-6-quinolyl)benzamide] | 200 to 500 nM |
